In data set [1] the test system is osteoarthritis of the knees. Description: Example 94 (second): osteoarthritic knees, intra-articular injection of N-Bz hydrazide. In kind it is in vivo, human. The settings on record: 0.08% (0.8 mg/ml) in water, 1 ml per knee intra-articular. On the procedure:
A subject with osteoarthritis of the knees that progressively worsened over the years, evaluated the analgesic effectiveness of many topical preparations of tetrapeptide derivatives of the invention on numerous occasions. After such experiences they decided to self-inject […] knees with a sterile aqueous preparation of N-Bz-Tyr-Pro-Phe-Phe-NHNH2 (SEQ ID NO: 91) at a concentration of 0.08% (0.8 mg/ml) in water. Each knee was injected with 1 ml (0.8 mg) of the preparation via the sub-patellar route. […] The knees felt more comfortable than usual after 24 hours. The improvement from […] was judged to be more than 90% by clinical evaluation.

The subject of data set [2] is psoriatic arthritis, fingers and wrists. Description: Example 95: comparative analgesic efficacy on pain of psoriatic arthritis, topical. The data set is classed as in vivo, human. The settings on record: for pain relief: 1% (w/v) in WEP442, topical to fingers and wrists. The source says: […] Treatment of the subject over the years included methotrexate and other antimetabolites, and in recent years, drugs known as biologic medications. While these agents provided intervals of relief, none provided lasting benefit. Over the past decade, painful arthritis developed in both hands and knees, and in numerous joints of the fingers. Three related tetrapeptide derivatives, 1% (w/v) in vehicle WEP442, were topically applied to the fingers and wrists of both hands one at a time. […] Analgesic efficacy was rated by the subject as 75%.

A further data set relates to headache. Description: Example 52: analgesic effect on headache. In kind it is in vivo, human. The settings on record: two 500 mg tablets, oral. The source says: At 5:30 p.m., the headache pain was becoming more intense, at which time they topically applied a composition containing 1% (w/v) of N-Pg-Tyr-Pro-Phe-Phe-NH2 (SEQ ID NO: 44) in WEP442 to the entire forehead and temporal areas. […] There was no recurrence of symptoms over the next 3 days of follow-up time.

The subject of the next data set is post-sunburn pain. Description: Example 86: analgesic effect on sunburn pain, topical. The data set is classed as in vivo, human. On the procedure: A subject, experienced post-sunburn pain at the frontal hairline of the scalp, an area not earlier covered by sunscreen lotion at time of sun exposure several days earlier. They vigorously rubbed the area later to remove lingering skin scales, which caused irritation and pain. […] Relief lasted for 4 hours. […] The condition was then resolved with the use of a hydrating skin cream.

For data set [3], the system named is psoriatic arthritis of finger joints. Description: Example 84: analgesic effect on pain from psoriatic arthritis, topical. The settings on record: 0.8% (w/v) in WEP442, topical. The data set is classed as in vivo, human. From the text: A subject […], had extensive plaque psoriasis and painful arthritis of the interphalangeal joints of both index fingers, left thumb and left 5th finger, which compromised their work performance as an esthetician. The subject topically applied a solution composition containing 0.8% (w/v) of N-Ac-Tyr-Pro-Phe-Phe-NHCH3 (SEQ ID NO: 24) in WEP442 to their painful fingers.

Another data set deals with lower back (lumbar) pain. Description: Example 85: analgesic effect on lower back pain, topical. In kind it is in vivo, human. The method, then:
A subject had lower back (lumbar) pain associated with sitting in a crouched position at a low work table for about 3 hours. Upon their sitting up straight, the pain became more pronounced and persisted as they walked around for 15-20 minutes.

Data set [4] relates to trapezius muscle strain pain. Description: Example 81: analgesic effect on pain from trapezius muscle strain, topical. The data set is classed as in vivo, human. The settings on record: 0.7% (w/v) in propylene glycol: triethyl citrate : water (4:4:2). The source says:
A subject with persistent pain localized to a site medial to the upper right scapula (shoulder blade) topically applied to that site a composition containing 0.7% (w/v) of N-Ac-Tyr-Pro-Phe-Phe-NHCH3(SEQ ID NO: 24) in propylene glycol: triethyl citrate : water (4:4:2 ratio).

Data set [5] has as its system osteoarthritis of the fingers and wrists. Description: Example 83: analgesic effect on osteoarthritic pain, topical. In kind it is in vivo, human. The settings on record: 0.8% (w/v) in WEP442, topical. The method, then:
A subject had osteoarthritis of the fingers and wrists for about 10 years, with substantial worsening over the past several months. Symptoms included painful finger joints and wrists. The pain was much worsened by flexion, so that making a first was too painful to try. Moreover, complete flexion had not been possible because of actual physical limitations. Anatomical signs of their disorder, e.g., enlarged finger joints, were conspicuous in their case. After 36 hours of no topical or systemic use of any analgesic agent, pain in the fingers and wrists was again present and substantial, so much so that they were unable to slice vegetables with a knife.

The subject of a further data set is thermal burn of finger. Description: Example 56: analgesic effect on finger pain caused by thermal burn, topical. In kind it is in vivo, human. The settings on record: 1% (w/v) in WEP442, topical. From the text:
A subject, suffered a thermal burn of their right fourth finger from touching a hot kitchen plate. […] Six days later, the burned site appeared normal.

The test system of a further data set is migraine. Description: Example 80: analgesic effect on pain and nausea from migraine headache, topical. The data set is classed as in vivo, human. The settings on record: 0.5% (w/v) in WEP442, topical at onset of symptoms. From the text: A subject with a history of recurrent attacks of migraine, was provided a solution composition containing 0.5% (w/v) of N-Pg-Tyr-Pro-Phe-Phe-NH2 (SEQ ID NO: 44) in WEP442 and a solution composition containing 0.5% (w/v) of N-Ac-Tyr-Pro-Phe-Phe-NHNH2 (SEQ ID NO: 31) in WEP442. […] Sensations of nausea that might have lingered went away after several minutes following a second topical application.

For another data set, the system named is sinus headaches. Description: Example 55: analgesic effect on headache due to sinusitis, topical. The settings on record: 1% (w/v) in WEP442, topical. In kind it is in vivo, human. From the text:
A subject, suffered from chronic recurrent “sinus headaches.” At the time of one such headache, they topically applied to the entire forehead and, with their eyes closed, to the sites overlying the frontal and maxillary sinuses a composition containing 1% (w/v) of N-Ac-Tyr-Pro-Phe-Phe-NHNH2 (SEQ ID NO: 31) in WEP442.

Data set [6] has as its system psoriatic arthritis pain, fingers and wrists. Description: Example 48: comparative analgesic efficacy, psoriatic arthritis pain of fingers and wrists, topical. The settings on record: 1% (w/v) in WEP442, topical. In kind it is in vivo, human. From the text: […] Treatment of the subject over the years included methotrexate and other antimetabolites, and in recent years drugs known as biologic medications. While these agents have provided intervals of relief, none has provided a lasting benefit. Over the past decade, painful arthritis developed in both wrists and in numerous joints of the fingers. Four related tetrapeptide derivatives, 1% (w/v) solution compositions in vehicle WEP442, one at a time, were topically applied to the fingers and wrists of both hands. […] Efficacy was rated by the subject as 4+. • (B) N-Ac-Tyr-Pro-Phe-Phe-NHNH2 (SEQ ID NO: 31) provided slow relief of pain, i.e. within about 10 minutes. […] Analgesic efficacy was judged by the subject to be 0 to 1+.

The subject of a further data set is hangover headache. Description: Example 54: analgesic effect on hangover headache, topical. In kind it is in vivo, human. The settings on record: 1% (w/v) in WEP442, topical. The source says:
A subject with a “splitting” headache the morning after heavy drinking at a party the night before, topically applied to the entire head and neck a composition containing 1% (w/v) of N-Ac-Tyr-Pro-Phe-Phe-NHNH2 (SEQ ID NO: 31) in WEP442. […] They then drove their car approximately 90 miles to their residence.

The test system of data set [7] is arthritic pain of wrists and fingers (psoriasis). Description: Example 61: comparative analgesic efficacy in psoriatic arthritis of wrists and fingers, topical. The data set is classed as in vivo, human. The settings on record: 1% (w/v) in WEP442, topical. From the text: A subject with severe generalized psoriasis compared the topical efficacy of solution compositions of nine (9) tetrapeptide derivatives on arthritic pain of their wrists and fingers. All of the solution compositions contained 1% (w/v) of tetrapeptide derivative in WEP442.

For data set [8] the following is noted: rats injected with 18 pmol; cited from earlier work.
The subject of data set [9] is rat rostral ventrolateral medulla neurons. The settings on record: in vitro; cited from earlier work.
For a further data set, the target named is mu receptors (Mus musculus, UniProt P42866). The settings on record: mouse brain; cited from earlier work.
mu receptors, sequence (P42866 whole entry): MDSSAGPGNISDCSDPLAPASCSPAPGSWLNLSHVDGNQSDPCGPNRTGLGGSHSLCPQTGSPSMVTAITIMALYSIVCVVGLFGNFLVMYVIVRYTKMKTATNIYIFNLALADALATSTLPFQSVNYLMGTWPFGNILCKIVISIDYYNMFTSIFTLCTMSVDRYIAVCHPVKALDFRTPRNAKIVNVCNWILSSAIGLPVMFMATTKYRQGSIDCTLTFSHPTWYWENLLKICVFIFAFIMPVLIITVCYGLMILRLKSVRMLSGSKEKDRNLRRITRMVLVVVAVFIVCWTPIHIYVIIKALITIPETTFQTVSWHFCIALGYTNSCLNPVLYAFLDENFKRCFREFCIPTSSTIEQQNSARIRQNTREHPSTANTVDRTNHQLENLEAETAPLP

Primed or numbered codes have the meaning given here. *: point of attachment. Bz′ = not defined here; NHPr = CCCN*; NHNH2 = NN*; NHOH = ON*

`NNC(=O)[C@H](Cc1ccccc1)NC(=O)[C@H](Cc1ccccc1)NC(=O)[C@@H]1CCCN1C(=O)[C@H](Cc1ccc(O)cc1)NC(=O)c1ccccc1` [N-Bz-Tyr-Pro-Phe-Phe-NHNH2]: in data set [1], the “discomfort from the injections” value is “no discomfort from the injections”, the “duration of pain relief” value was 11 h, the “improvement by clinical evaluation” value is listed as “more than 90%” and the “pains in both knees” value was “gradually disappeared”. Besides, in data set [2] (1% (w/v) in WEP442, topical), the “analgesic efficacy rated by the subject” value worked out at 100% and the “duration of pain relief” value is recorded as “about 24 hours”. Besides, the pain relief entry in [2] is recorded as “rapid complete relief of pain”.

As for `CC(=O)Nc1ccc(O)cc1` [acetaminophen, reference compound], the pain relief entry in the data set with headache is “slight relief of pain”.

Consider “N-Ac-Tyr-Pro-Phe-Phe-NHCH2CH2CH3 (Ac-YPFF-NHPr; SMILES CCCNC(=O)[C@H](Cc1ccccc1)NC(=O)[C@H](Cc1ccccc1)NC(=O)[C@@H]1CCCN1C(=O)[C@H](Cc1ccc(O)cc1)NC(C)=O)”, for which, in data set [2] (1% (w/v) in WEP442, topical), the “analgesic efficacy rated by the subject” value was found to be 75%, the “duration of pain relief” value was “less than 6 hours” and the “time to pain relief” value is reported as “more than 5 minutes”. In data set [2], the pain relief entry is listed as “slower relief of pain”.

Turning to “N-Ac-Tyr-Pro-Phe-Phe-NHCH3 (Ac-YPFF-NHMe; SMILES CNC(=O)[C@H](Cc1ccccc1)NC(=O)[C@H](Cc1ccccc1)NC(=O)[C@@H]1CCCN1C(=O)[C@H](Cc1ccc(O)cc1)NC(C)=O)”, the pain relief result was “complete relief of pain” with post-sunburn pain (0.8% (w/v) in WEP442, several applications over the next 24 hours); “almost immediate relief of the painful discomfort” in the data set on post-sunburn pain (0.8% (w/v) in WEP442, topical); “completely relieved” in data set [3]; “complete resolution of all pain in the lower back” in the data set with lower back (lumbar) pain ((w/v) in WEP442, topical); “Complete relief of pain” in data set [4]; “completely relieved all pain” in [5]. The molecule further came in with a duration of relief with post-sunburn pain (0.8% (w/v) in WEP442, topical) of 4 h. For the same molecule, the “duration of pain relief” value in data set [3] is on record as “about 7 hours”; in data set [4] it was “about 4 hours”; in data set [5], “about 17 hours”. For the same molecule, the “time to pain relief” value in [3] is 3 to 4 min; in the data set with lower back (lumbar) pain (0/8% (w/v) in WEP442, topical), at most 5 min; in [4], at most 2 min; in [5] it was 5 to 7 min. Further, the recurrence entry with lower back (lumbar) pain (0/8% (w/v) in WEP442, topical) is “did not return”.

Regarding “N-Ac-Tyr-Pro-Phe-Phe-NHNH2 (Ac-YPFF-NHNH2; SMILES CC(=O)N[C@@H](Cc1ccc(O)cc1)C(=O)N1CCC[C@H]1C(=O)N[C@@H](Cc1ccccc1)C(=O)N[C@@H](Cc1ccccc1)C(=O)NN)”, the “blister at burned site” value in the data set with thermal burn of finger is “did not developed a blister”. Besides, the pain relief entry in the data set with thermal burn of finger is listed as “completely relieved the pain almost instantly”; with migraine, “complete relief of pain”; in the data set with sinus headaches, “headache completely subsided”; in data set [6], “Almost complete relief of pain”; with hangover headache, “the headache ceased”. In addition, the “time to pain relief” value in the data set on sinus headaches is at most 10 min; in [6], at most 10 min; with hangover headache, 1 to 2 min.

As for “N-Ac-Tyr-Pro-Phe-Phe-OEt (Ac-YPFF-OEt; SMILES CCOC(=O)[C@H](Cc1ccccc1)NC(=O)[C@H](Cc1ccccc1)NC(=O)[C@@H]1CCCN1C(=O)[C@H](Cc1ccc(O)cc1)NC(C)=O)”, the “efficacy by clinical evaluation” value in data set [7] was determined as 0.

Consider “N-Bz-Tyr-Pro-Phe-Phe-NHOH ({Bz′}-YPFF-{NHOH})”, for which, in data set [2] (1% (w/v) in WEP442, topical), the “analgesic efficacy rated by the subject” value was determined as 90% and the “duration of pain relief” value is reported as “about 10 hours”. Moreover, the pain relief entry in data set [2] is listed as “rapid complete relief of pain”.

“N-Pg-Tyr-Pro-Trp-Phe-NH2 [reference compound]”: the pain relief result in data set [6] was “slow, minimal relief of pain”.

Take “Tyr-Pro-Trp-Phe-NH2 [reference compound]”: the “desensitization of the motor response” value in [8] is on record as “did not induce rapid desensitization of the motor response”. The “spontaneous discharge of the medullary neurons” value in data set [9] is reported as “significantly inhibited”. Besides, the “affinity for mu receptors” value in the data set with mu receptors is reported as “very high affinity”.

Values taken from patent US20190248834A1, “ENDOMORPHIN-2, TETRAPEPTIDE DERIVATIVES THEREOF, AND USES THEREOF” (priority 2016, published 2019).
